Measured values reported in patent US12492193B2, “Pyrazole derivatives for the treatment of cystic fibrosis” (Fondazione Istituto Italiano Di Tecnologia, priority 2017, dated 2025).

Target: T1, mutant CFTR (Homo sapiens, UniProt P13569, DEL508-508)
T1 construct: expressed in transfected cells
Assay: Fluorescence (HS-YFP) assay for CFTR activity, corrector assay
Format: cell-based
Details: CFBE41o- and FRT cells with stable expression of mutant CFTR, 24 h compound treatment
Summary of the method: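 CFBE41o- or FRT cells stably expressing mutant CFTR and HS-YFP were exposed to compounds for 24 h (corrector mode), then stimulated 30 min at 37° C with forskolin (20 μM) plus genistein (50 μM). YFP quenching after 100 mM iodide injection; initial slope from exponential fit of final 10 s; EC50 reported.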

T1 sequence (P13569 with tags, fused parts or gaps DEL508-508): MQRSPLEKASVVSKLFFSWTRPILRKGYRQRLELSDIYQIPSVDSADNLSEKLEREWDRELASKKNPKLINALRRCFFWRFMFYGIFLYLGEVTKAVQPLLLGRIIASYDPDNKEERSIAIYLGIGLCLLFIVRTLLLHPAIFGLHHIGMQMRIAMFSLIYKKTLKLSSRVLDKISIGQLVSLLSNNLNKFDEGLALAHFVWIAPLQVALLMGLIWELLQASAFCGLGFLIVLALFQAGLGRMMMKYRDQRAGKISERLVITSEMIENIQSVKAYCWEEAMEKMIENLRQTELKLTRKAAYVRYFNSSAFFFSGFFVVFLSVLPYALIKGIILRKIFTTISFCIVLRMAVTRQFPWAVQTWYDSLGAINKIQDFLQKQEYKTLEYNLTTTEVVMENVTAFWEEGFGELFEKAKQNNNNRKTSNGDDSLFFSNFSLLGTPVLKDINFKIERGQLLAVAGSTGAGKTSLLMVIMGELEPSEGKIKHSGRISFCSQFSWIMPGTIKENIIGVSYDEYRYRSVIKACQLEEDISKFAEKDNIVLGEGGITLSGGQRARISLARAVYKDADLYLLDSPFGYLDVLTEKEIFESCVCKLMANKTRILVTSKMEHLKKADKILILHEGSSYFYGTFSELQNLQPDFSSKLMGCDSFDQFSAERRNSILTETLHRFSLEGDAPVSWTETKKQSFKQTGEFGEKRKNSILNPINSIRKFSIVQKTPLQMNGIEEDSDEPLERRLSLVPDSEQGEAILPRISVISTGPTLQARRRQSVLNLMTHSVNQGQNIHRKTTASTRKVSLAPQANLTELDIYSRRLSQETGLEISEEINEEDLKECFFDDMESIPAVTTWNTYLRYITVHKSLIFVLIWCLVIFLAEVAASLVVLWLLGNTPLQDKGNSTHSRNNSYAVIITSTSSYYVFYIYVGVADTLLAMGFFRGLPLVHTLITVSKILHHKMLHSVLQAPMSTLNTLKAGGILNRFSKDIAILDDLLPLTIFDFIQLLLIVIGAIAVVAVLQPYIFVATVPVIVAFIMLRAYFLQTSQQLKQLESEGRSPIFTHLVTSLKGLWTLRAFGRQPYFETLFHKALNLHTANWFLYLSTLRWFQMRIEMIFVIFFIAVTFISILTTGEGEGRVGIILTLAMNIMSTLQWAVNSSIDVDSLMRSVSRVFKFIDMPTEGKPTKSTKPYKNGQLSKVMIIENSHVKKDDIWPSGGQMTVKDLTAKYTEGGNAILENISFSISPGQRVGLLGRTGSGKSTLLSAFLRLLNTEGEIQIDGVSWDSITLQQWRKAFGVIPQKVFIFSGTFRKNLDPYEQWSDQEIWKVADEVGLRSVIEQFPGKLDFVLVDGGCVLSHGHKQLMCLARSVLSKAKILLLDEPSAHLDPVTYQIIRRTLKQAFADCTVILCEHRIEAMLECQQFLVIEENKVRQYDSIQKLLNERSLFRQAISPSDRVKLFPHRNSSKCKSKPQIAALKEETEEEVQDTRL

SMILES	EC50 [nM]
CN(C(=O)c1cccc(-n2nc(C(F)(F)F)c(Cl)c2OCc2ccc(C(=O)O)cc2)c1)c1ccc2c(c1)OCO2 [compound 159, 4-[[2-[3-[1,3-Benzodioxol-5-yl(methyl)carbamoyl]phenyl]-4-chloro-5-(trifluoromethyl)pyrazol-3-yl]oxymethyl]benzoic acid]	< 1000
Cc1c(Cl)c(C(F)(F)F)nn1-c1cccc(C(=O)Nc2cc3c(cc2C#N)OCO3)c1 [compound 162, 3-[4-chloro-5-methyl-3-(trifluoromethyl)pyrazol-1-yl]-N-(6-cyano-1,3-benzodioxol-5-yl)benzamide]	> 2000
CN(C(=O)c1cccc(-n2nc(C(F)(F)F)cc2-c2ccc(Cl)s2)c1)c1ccc2c(c1)OCO2 [compound 164, N-(1,3-Benzodioxol-5-yl)-3-[5-(5-chloro-2-thienyl)-3-(trifluoromethyl)pyrazol-1-yl]-N-methyl-benzamide]	< 1000
Cc1c(Cl)c(C(F)(F)F)nn1-c1cccc(C(=O)N(C)c2cc3c(cc2CO)OCO3)c1 [compound 168, 3-[4-chloro-5-methyl-3-(trifluoromethyl)pyrazol-1-yl]-N-[6-(hydroxymethyl)-1,3-benzodioxol-5-yl]-N-methyl-benzamide]	1000 to 2000
Cc1cc(C(F)(F)F)n(-c2cc(C(=O)N(C)c3ccc4c(c3)OCO4)ccn2)n1 [compound 169, N-(1,3-Benzodioxol-5-yl)-N-methyl-2-[3-methyl-5-(trifluoromethyl)pyrazol-1-yl]pyridine-4-carboxamide]	> 2000
Cc1nn(-c2cc(C(=O)N(C)c3ccc4c(c3)OCO4)ccn2)c(C(F)(F)F)c1Cl [compound 170, N-(1,3-Benzodioxol-5-yl)-2-[4-chloro-3-methyl-5-(trifluoromethyl)pyrazol-1-yl]-N-methyl-pyridine-4-carboxamide]	> 2000
Cc1nc2ccc(NC(=O)c3cccc(-n4nc(C(F)(F)F)c(Cl)c4COc4ccc(C(=O)OC(C)(C)C)cc4)c3)cn2n1 [compound 173, tert-Butyl 4-[[4-chloro-2-[3-[(2-methyl-[1,2,4]triazolo[1,5-a]pyridin-6-yl)carbamoyl]phenyl]-5-(trifluoromethyl)pyrazol-3-yl]methoxy]benzoate]	> 2000
CN(C(=O)c1cccc(-n2nc(C(F)(F)F)c(Cl)c2COc2ccc(C(=O)OC(C)(C)C)cc2)c1)c1ccc2c(c1)OC(F)(F)O2 [compound 175, Tert-butyl 4-[[4-chloro-2-[3-[(2,2-difluoro-1,3-benzodioxol-5-yl)-methyl-carbamoyl]phenyl]-5-(trifluoromethyl)pyrazol-3-yl]methoxy]benzoate]	< 1000
CN(C(=O)c1cccc(-n2nc(C(F)(F)F)cc2-c2ccccc2C(F)(F)F)c1)c1ccc2c(c1)OCO2 [compound 176, N-(1,3-Benzodioxol-5-yl)-N-methyl-3-[3-(trifluoromethyl)-5-[2-(trifluoromethyl)phenyl]pyrazol-1-yl]benzamide]	< 1000
[2H]C([2H])([2H])N(C(=O)c1cccc(-n2nc(C(F)(F)F)c(Cl)c2COc2ccc(C(=O)O)cc2)c1)c1ccc2c(c1)OC(F)(F)O2 [compound 182, 4-[[4-Chloro-2-[3-[(2,2-difluoro-1,3-benzodioxol-5-yl)-(trideuteriomethyl)carbamoyl]phenyl]-5-(trifluoromethyl)pyrazol-3-yl]methoxy]benzoic acid]	< 1000
COc1ccccc1-c1c(Cl)c(C(F)(F)F)nn1-c1cccc(C(=O)N(C)c2ccc3c(c2)OCO3)c1 [compound 183, N-(1,3-Benzodioxol-5-yl)-3-[4-chloro-5-(2-methoxyphenyl)-3-(trifluoromethyl)pyrazol-1-yl]-N-methyl-benzamide]	< 1000
COc1ccccc1-c1cc(C(F)(F)F)nn1-c1cccc(C(=O)N(C)c2ccc3c(c2)OCO3)c1 [compound 184, N-(1,3-Benzodioxol-5-yl)-3-[5-(2-methoxyphenyl)-3-(trifluoromethyl)pyrazol-1-yl]-N-methyl-benzamide]	< 1000
Cc1c(C=O)c(C(F)(F)F)nn1-c1cccc(C(=O)N(C)c2ccc3c(c2)OCO3)c1 [compound 186, N-(1,3-Benzodioxol-5-yl)-3-[4-formyl-5-methyl-3-(trifluoromethyl)pyrazol-1-yl]-N-methyl-benzamide]	< 1000
Cc1c(C#N)c(C(F)(F)F)nn1-c1cccc(C(=O)N(C)c2ccc3c(c2)OCO3)c1 [compound 187, N-(1,3-Benzodioxol-5-yl)-3-[4-cyano-5-methyl-3-(trifluoromethyl)pyrazol-1-yl]-N-methyl-benzamide]	< 1000
Cc1nc2ccc(N(C)C(=O)c3cccc(-n4nc(C(F)(F)F)cc4OCc4ccc(C(=O)OC(C)(C)C)cc4)c3)cc2o1 [compound 188, Tert-butyl 4-[[2-[3-[methyl-(2-methyl-1,3-benzoxazol-6-yl)carbamoyl]phenyl]-5-(trifluoromethyl)pyrazol-3-yl]oxymethyl]benzoate]	< 1000
Cc1nc2cc(F)c(N(C)C(=O)c3cccc(-n4nc(C(F)(F)F)cc4OCc4ccc(C(=O)OC(C)(C)C)cc4)c3)cc2o1 [compound 189, Tert-butyl 4-[[2-[3-[(5-fluoro-2-methyl-1,3-benzoxazol-6-yl)-methyl-carbamoyl]phenyl]-5-(trifluoromethyl)pyrazol-3-yl]oxymethyl]benzoate]	< 1000

The remaining lines, values ahead:

EC50 [nM]	SMILES
1000 to 2000	Cc1c(Cl)c(C(F)(F)F)nn1-c1cccc(C(=O)N(C)c2cc3c(cc2C=O)OCO3)c1 [compound 161, 3-[4-chloro-5-methyl-3-(trifluoromethyl)pyrazol-1-yl]-N-(6-formyl-1,3-benzodioxol-5-yl)-N-methyl-benzamide]
< 1000	Cc1c(Cl)c(C(F)(F)F)nn1-c1cccc(C(=O)N(C)c2cc3c(cc2C#N)OCO3)c1 [compound 163, 3-[4-chloro-5-methyl-3-(trifluoromethyl)pyrazol-1-yl]-N-(6-cyano-1,3-benzodioxol-5-yl)-N-methyl-benzamide]
> 2000	O=C(Nc1ccc2c(c1)OCO2)c1cccc(-n2nc(C(F)(F)F)c(Cl)c2C2CC2)c1 [compound 165, N-(1,3-Benzodioxol-5-yl)-3-[4-chloro-5-cyclopropyl-3-(trifluoromethyl)pyrazol-1-yl]benzamide]
< 1000	CN(C(=O)c1cccc(-n2nc(C(F)(F)F)cc2-c2cccs2)c1)c1ccc2c(c1)OCO2 [compound 166, N-(1,3-Benzodioxol-5-yl)-N-methyl-3-[5-(2-thienyl)-3-(trifluoromethyl)pyrazol-1-yl]benzamide]
< 1000	Cc1c(Cl)c(C(F)(F)F)nn1-c1cc(C(=O)N(C)c2ccc3c(c2)OCO3)ccn1 [compound 171, N-(1,3-Benzodioxol-5-yl)-2-[4-chloro-5-methyl-3-(trifluoromethyl)pyrazol-1-yl]-N-methyl-pyridine-4-carboxamide]
> 2000	O=C(O)c1ccc(OCc2c(Cl)c(C(F)(F)F)nn2-c2cccc(C(=O)Nc3ccc4c(c3)OC(F)(F)O4)c2)cc1 [compound 174, 4-[[4-Chloro-2-[3-[(2,2-difluoro-1,3-benzodioxol-5-yl)carbamoyl]phenyl]-5-(trifluoromethyl)pyrazol-3-yl]methoxy] benzoic acid]
< 1000	CN(C(=O)c1cccc(-n2nc(C(F)(F)F)c(Cl)c2COc2ccc(C(=O)O)cc2)c1)c1ccc2c(c1)OC(F)(F)O2 [compound 177, 4-[[4-chloro-2-[3-[(2,2-difluoro-1,3-benzodioxol-5-yl)-methyl-carbamoyl]phenyl]-5-(trifluoromethyl)pyrazol-3-yl]methoxy]benzoic acid]
> 2000	Cc1c(Cl)c(C(F)(F)F)nn1-c1cccc(C(=O)N(C)c2cc3c(cc2C(=O)O)OCO3)c1 [compound 179, 6-[[3-[4-chloro-5-methyl-3-(trifluoromethyl)pyrazol-1-yl]benzoyl]-methyl-amino]-1,3-benzodioxole-5-carboxylic acid]
< 1000	CN(C(=O)c1cccc(-n2nc(C(F)(F)F)c(C=O)c2Oc2ccccc2)c1)c1ccc2c(c1)OCO2 [compound 180, N-(1,3-Benzodioxol-5-yl)-3-[4-formyl-5-phenoxy-3-(trifluoromethyl)pyrazol-1-yl]-N-methyl-benzamide]
< 1000	[2H]C([2H])([2H])N(C(=O)c1cccc(-n2nc(C(F)(F)F)c(Cl)c2COc2ccc(C(=O)OC(C)(C)C)cc2)c1)c1ccc2c(c1)OC(F)(F)O2 [compound 181, Tert-butyl 4-[[4-chloro-2-[3-[(2,2-difluoro-1,3-benzodioxol-5-yl)-(trideuteriomethyl)carbamoyl]phenyl]-5-(trifluoromethyl)pyrazol-3-yl]methoxy]benzoate]
< 1000	CN(C(=O)c1cccc(-n2nc(C(F)(F)F)c(C#N)c2Oc2ccccc2)c1)c1ccc2c(c1)OCO2 [compound 185, N-(1,3-Benzodioxol-5-yl)-3-[4-cyano-5-phenoxy-3-(trifluoromethyl)pyrazol-1-yl]-N-methyl-benzamide]
< 1000	Cc1nc2ccc(N(C)C(=O)c3cccc(-n4nc(C(F)(F)F)c(Cl)c4OCc4ccc(C(=O)OC(C)(C)C)cc4)c3)cc2o1 [compound 190, Tert-butyl 4-[[4-chloro-2-[3-[methyl-(2-methyl-1,3-benzoxazol-6-yl)carbamoyl]phenyl]-5-(trifluoromethyl)pyrazol-3-yl]oxymethyl]benzoate]
< 1000	CN(C(=O)c1cccc(-n2nc(C(F)(F)F)cc2OCc2ccc(C(=O)OC(C)(C)C)cc2)c1)c1ccc2c(c1)OC(F)(F)O2 [compound 191, Tert-butyl 4-[[2-[3-[(2,2-difluoro-1,3-benzodioxol-5-yl)-methyl-carbamoyl]phenyl]-5-(trifluoromethyl)pyrazol-3-yl]oxymethyl]benzoate]
1000 to 2000	CN(C(=O)c1cccc(-n2nc(-c3ccccn3)cc2C(F)(F)F)c1)c1ccc2c(c1)OCO2 [compound 192, N-(1,3-benzodioxol-5-yl)-N-methyl-3-[3-(2-pyridyl)-5-(trifluoromethyl)pyrazol-1-yl]benzamide]
